System: 252836-082-R-J2-PDC tumor spheroids, viability
Experiment: Anticancer human tumor 252836-082-R-J2-PDC patient-derived head and neck squamous cell carcinoma cell line growth inhibition [PI3K]
Details: spheroids with HUVEC and MSC; for viability, T/C: stronger effect = lower value
How it was run: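 Multi-cell spheroids combine tumor cells with HUVEC and human MSCs, treated with targeted agents alone or with inavolisib, alpelisib, duvelisib or copanlisib. Concentrations fall in half-log steps from at or near clinical Cmax, or from 10 microM where Cmax is unknown; viability read-out.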

[1] = curve of first compound, second compound 0.0316 µM
[2] = curve of first compound, second compound 0.1 µM
[3] = curve of first compound, second compound 0.316 µM
[4] = curve of first compound, second compound 1 µM
[5] = second compound 0.0316 µM, first compound 0.0316 µM
[6] = second compound 0.0316 µM, first compound 0.1 µM
[7] = second compound 0.1 µM, first compound 0.0316 µM
[8] = second compound 0.1 µM, first compound 0.1 µM
[9] = second compound 0.316 µM, first compound 0.0316 µM
[10] = second compound 0.316 µM, first compound 0.1 µM
[11] = second compound 1 µM, first compound 0.0316 µM
[12] = second compound 1 µM, first compound 0.1 µM
[13] = curve of first compound, second compound 0.00316 µM
[14] = curve of first compound, second compound 0.01 µM
[15] = second compound 0.00316 µM, first compound 0.0316 µM
[16] = second compound 0.00316 µM, first compound 0.1 µM
[17] = second compound 0.00316 µM, first compound 0.316 µM
[18] = second compound 0.00316 µM, first compound 1 µM
[19] = second compound 0.00316 µM, first compound 3.16 µM
[20] = second compound 0.00316 µM, first compound 10 µM
[21] = second compound 0.01 µM, first compound 0.0316 µM
[22] = second compound 0.01 µM, first compound 0.1 µM
[23] = second compound 0.01 µM, first compound 0.316 µM
[24] = second compound 0.01 µM, first compound 1 µM
[25] = second compound 0.01 µM, first compound 3.16 µM
[26] = second compound 0.01 µM, first compound 10 µM
[27] = second compound 0.0316 µM, first compound 0.316 µM
[28] = second compound 0.0316 µM, first compound 1 µM
[29] = second compound 0.0316 µM, first compound 3.16 µM
[30] = second compound 0.0316 µM, first compound 10 µM
[31] = second compound 0.1 µM, first compound 0.316 µM
[32] = second compound 0.1 µM, first compound 1 µM
[33] = second compound 0.1 µM, first compound 3.16 µM
[34] = second compound 0.1 µM, first compound 10 µM
[35] = second compound 0.316 µM, first compound 0.316 µM
[36] = second compound 0.316 µM, first compound 1 µM
[37] = second compound 0.316 µM, first compound 3.16 µM
[38] = second compound 0.316 µM, first compound 10 µM
[39] = second compound 1 µM, first compound 0.316 µM
[40] = second compound 1 µM, first compound 1 µM
[41] = second compound 1 µM, first compound 3.16 µM
[42] = second compound 1 µM, first compound 10 µM
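Note: spheroids exposed to agents for seven days before readout.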
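Throughout, for viability, T/C: percent of vehicle DMSO control viability so 100% = untreated growth.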

Compound: CC(=O)c1c(C)c2cnc(Nc3ccc(N4CCNCC4)cn3)nc2n(C2CCCC2)c1=O + CC(Nc1ncnc2nc[nH]c12)c1cc2cccc(Cl)c2c(=O)n1-c1ccccc1
- IC50 [1]: > 0.1 µM
- IC50 [2]: > 0.1 µM
- IC50 [3]: > 0.1 µM
- IC50 [4]: > 0.1 µM
- IC50 (curve of first compound, second compound 3.16 µM): > 0.1 µM
- IC50 (curve of first compound, second compound 10 µM): > 0.1 µM
- viability, T/C (second compound 0.0316 µM, first compound 0.000316 µM): 99.4%
- viability, T/C (second compound 0.0316 µM, first compound 0.001 µM): 92.6%
- viability, T/C (second compound 0.0316 µM, first compound 0.00316 µM): 93%
- viability, T/C (second compound 0.0316 µM, first compound 0.01 µM): 89.1%
- viability, T/C [5]: 91.8%
- viability, T/C [6]: 93.2%
- viability, T/C (second compound 0.1 µM, first compound 0.000316 µM): 105%
- viability, T/C (second compound 0.1 µM, first compound 0.001 µM): 89.6%
- viability, T/C (second compound 0.1 µM, first compound 0.00316 µM): 76.6%
- viability, T/C (second compound 0.1 µM, first compound 0.01 µM): 83.3%
- viability, T/C [7]: 83%
- viability, T/C [8]: 75.4%
- viability, T/C (second compound 0.316 µM, first compound 0.000316 µM): 114%
- viability, T/C (second compound 0.316 µM, first compound 0.001 µM): 91.4%
- viability, T/C (second compound 0.316 µM, first compound 0.00316 µM): 86.9%
- viability, T/C (second compound 0.316 µM, first compound 0.01 µM): 93.7%
- viability, T/C [9]: 88.7%
- viability, T/C [10]: 96.6%
- viability, T/C (second compound 1 µM, first compound 0.000316 µM): 81.9%
- viability, T/C (second compound 1 µM, first compound 0.001 µM): 72.4%
- viability, T/C (second compound 1 µM, first compound 0.00316 µM): 76.8%
- viability, T/C (second compound 1 µM, first compound 0.01 µM): 93.9%
- viability, T/C [11]: 79.8%
- viability, T/C [12]: 79.2%
- viability, T/C (second compound 3.16 µM, first compound 0.000316 µM): 91.6%
- viability, T/C (second compound 3.16 µM, first compound 0.001 µM): 87.9%
- viability, T/C (second compound 3.16 µM, first compound 0.00316 µM): 66.1%
- viability, T/C (second compound 3.16 µM, first compound 0.01 µM): 74.2%
- viability, T/C (second compound 3.16 µM, first compound 0.0316 µM): 73.7%
- viability, T/C (second compound 3.16 µM, first compound 0.1 µM): 71.6%
- viability, T/C (second compound 10 µM, first compound 0.000316 µM): 57.5%
- viability, T/C (second compound 10 µM, first compound 0.001 µM): 56.3%
- viability, T/C (second compound 10 µM, first compound 0.00316 µM): 69.2%
- viability, T/C (second compound 10 µM, first compound 0.01 µM): 61.1%
- viability, T/C (second compound 10 µM, first compound 0.0316 µM): 71.4%
- viability, T/C (second compound 10 µM, first compound 0.1 µM): 60.6%

Compound: C[C@@H](NC(=O)c1ncnc(N)c1Cl)c1ncc(C(=O)Nc2cc(C(F)(F)F)c(Cl)cn2)s1 + COc1c(OCCCN2CCOCC2)ccc2c3n(c(=NC(=O)c4cnc(N)nc4)nc12)CCN3
- IC50 [13]: > 10 µM
- IC50 [14]: > 10 µM
- IC50 [1]: > 10 µM
- IC50 [2]: < 0.0316 µM
- IC50 [3]: < 0.0316 µM
- IC50 [4]: < 0.0316 µM
- viability, T/C [15]: 89.6%
- viability, T/C [16]: 77.8%
- viability, T/C [17]: 104%
- viability, T/C [18]: 84.7%
- viability, T/C [19]: 94.5%
- viability, T/C [20]: 85.8%
- viability, T/C [21]: 81%
- viability, T/C [22]: 71.4%
- viability, T/C [23]: 79.5%
- viability, T/C [24]: 77.5%
- viability, T/C [25]: 72.4%
- viability, T/C [26]: 84.2%
- viability, T/C [5]: 69.6%
- viability, T/C [6]: 66.1%
- viability, T/C [27]: 80.5%
- viability, T/C [28]: 56%
- viability, T/C [29]: 62.1%
- viability, T/C [30]: 59.6%
- viability, T/C [7]: 37.6%
- viability, T/C [8]: 39.1%
- viability, T/C [31]: 39.9%
- viability, T/C [32]: 37%
- viability, T/C [33]: 43.3%
- viability, T/C [34]: 32.1%
- viability, T/C [9]: 18.4%
- viability, T/C [10]: 16.6%
- viability, T/C [35]: 21%
- viability, T/C [36]: 17.7%
- viability, T/C [37]: 17.2%
- viability, T/C [38]: 9.8%
- viability, T/C [11]: 5.39%
- viability, T/C [12]: 5.07%
- viability, T/C [39]: 5.62%
- viability, T/C [40]: 6.77%
- viability, T/C [41]: 5.91%
- viability, T/C [42]: 1.42%

Compound: CNC(=O)c1ccc(N2C(=S)N(c3ccc(C#N)c(C(F)(F)F)c3)C(=O)C2(C)C)cc1F + COc1c(OCCCN2CCOCC2)ccc2c3n(c(=NC(=O)c4cnc(N)nc4)nc12)CCN3
- IC50 [13]: > 10 µM
- IC50 [14]: > 10 µM
- IC50 [1]: > 10 µM
- IC50 [2]: < 0.0316 µM
- IC50 [3]: < 0.0316 µM
- IC50 [4]: < 0.0316 µM
- viability, T/C [15]: 97.9%
- viability, T/C [16]: 85.8%
- viability, T/C [17]: 87.3%
- viability, T/C [18]: 96.5%
- viability, T/C [19]: 96.2%
- viability, T/C [20]: 77.7%
- viability, T/C [21]: 73%
- viability, T/C [22]: 64.5%
- viability, T/C [23]: 79.5%
- viability, T/C [24]: 71.9%
- viability, T/C [25]: 76.1%
- viability, T/C [26]: 80%
- viability, T/C [5]: 60.7%
- viability, T/C [6]: 60.1%
- viability, T/C [27]: 49.9%
- viability, T/C [28]: 60.9%
- viability, T/C [29]: 62.8%
- viability, T/C [30]: 54.3%
- viability, T/C [7]: 36%
- viability, T/C [8]: 38%
- viability, T/C [31]: 36%
- viability, T/C [32]: 36.3%
- viability, T/C [33]: 33.5%
- viability, T/C [34]: 34.5%
- viability, T/C [9]: 19%
- viability, T/C [10]: 17.2%
- viability, T/C [35]: 17.1%
- viability, T/C [36]: 17.3%
- viability, T/C [37]: 17.4%
- viability, T/C [38]: 13.4%
- viability, T/C [11]: 4.5%
- viability, T/C [12]: 3.94%
- viability, T/C [39]: 5.87%
- viability, T/C [40]: 4.83%
- viability, T/C [41]: 4.62%
- viability, T/C [42]: 4.12%

Compound: Cn1ncnc1[C@H]1c2n[nH]c(=O)c3cc(F)cc(c23)N[C@@H]1c1ccc(F)cc1
- viability, T/C (compound 0.000316 µM): 97% [middle of 4 runs]
- viability, T/C (compound 0.001 µM): 95.9% [middle of 4 runs]
- viability, T/C (compound 0.00316 µM): 89.2% [middle of 4 runs]
- viability, T/C (compound 0.01 µM): 93.7% [middle of 4 runs]
- viability, T/C (compound 0.0316 µM): 69.4% [middle of 4 runs]
- viability, T/C (compound 0.1 µM): 55.5% [middle of 4 runs]
- IC50 (curve of compound): > 0.1 µM
